Active and inactive are the calls of the source.
Key:
[1] = T. cruzi infection blockers in NIH3T3 cells – beta-gal luminescence, NIH3T3 host cells, confirmation (AID 2630); type: functional, cell-based; details: Mus musculus
[2] = target: Intestinal-type alkaline phosphatase (Mus musculus, UniProt P24822); assay: mouse intestinal alkaline phosphatase activators, dose response, biochemical, luminescence, uHTS hits (AID 488783); type: functional
[3] = target: T1, Alkaline phosphatase, tissue-nonspecific isozyme (Homo sapiens, UniProt P05186); assay: activation of tissue-nonspecific alkaline phosphatase – biochemical, TNAP isozyme, mouse IAP uHTS hits, selectivity assay for mouse IAP activator project, dose response (AID 488880); type: functional
T1 sequence (P05186 whole entry): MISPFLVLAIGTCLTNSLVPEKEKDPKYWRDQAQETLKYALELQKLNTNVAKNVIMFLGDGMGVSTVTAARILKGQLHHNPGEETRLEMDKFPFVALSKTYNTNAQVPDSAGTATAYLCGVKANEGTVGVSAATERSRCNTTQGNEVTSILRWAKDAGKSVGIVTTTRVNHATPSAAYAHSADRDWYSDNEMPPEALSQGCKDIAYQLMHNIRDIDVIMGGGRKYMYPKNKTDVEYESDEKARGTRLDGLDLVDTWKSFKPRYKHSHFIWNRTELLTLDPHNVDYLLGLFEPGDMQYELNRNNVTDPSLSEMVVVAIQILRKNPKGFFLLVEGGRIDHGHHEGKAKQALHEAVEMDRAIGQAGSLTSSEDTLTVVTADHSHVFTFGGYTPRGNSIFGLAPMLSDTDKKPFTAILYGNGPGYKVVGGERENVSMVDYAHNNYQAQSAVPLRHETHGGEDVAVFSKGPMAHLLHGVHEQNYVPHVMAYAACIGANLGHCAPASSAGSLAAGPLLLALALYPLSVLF

Genome polyprotein = Genome polyprotein (dengue virus type 2, UniProt P29990); assay: flavivirus cap methylation enzyme inhibition – biochemical, confirmation dose response, primary screen (AID 588689); type: functional
[4] = target: Intestinal-type alkaline phosphatase (Homo sapiens, UniProt P09923); assay: activation of human intestinal alkaline phosphatase – biochemical, dose response (AID 488873); type: functional
Intestinal-type alkaline phosphatase (Homo sapiens, UniProt P09923), sequence (P09923 whole entry): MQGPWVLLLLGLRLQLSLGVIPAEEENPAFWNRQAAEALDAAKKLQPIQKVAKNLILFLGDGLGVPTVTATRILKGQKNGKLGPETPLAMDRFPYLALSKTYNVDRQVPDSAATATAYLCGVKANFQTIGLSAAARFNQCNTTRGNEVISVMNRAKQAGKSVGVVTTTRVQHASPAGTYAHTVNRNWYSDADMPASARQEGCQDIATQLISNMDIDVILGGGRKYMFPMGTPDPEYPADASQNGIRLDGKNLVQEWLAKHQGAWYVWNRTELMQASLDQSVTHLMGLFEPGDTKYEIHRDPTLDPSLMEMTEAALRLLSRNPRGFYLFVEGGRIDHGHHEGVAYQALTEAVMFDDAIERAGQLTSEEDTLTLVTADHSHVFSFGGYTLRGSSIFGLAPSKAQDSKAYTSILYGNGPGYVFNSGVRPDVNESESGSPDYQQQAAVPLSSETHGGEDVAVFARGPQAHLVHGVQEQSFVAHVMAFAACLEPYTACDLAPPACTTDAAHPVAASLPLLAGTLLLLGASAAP

Albumin = Albumin (Bos taurus, UniProt P02769); assay: Counterscreen for inhibitors of T-cell receptor (TCR)-CD3 interaction: Fluorescence-based biochemical high throughput dose response assay to identify inhibitors of T-cell receptor (TCR)-CD3 interaction using a TAMRA-labeled BSA probe.; type: functional
Albumin, sequence (P02769 whole entry): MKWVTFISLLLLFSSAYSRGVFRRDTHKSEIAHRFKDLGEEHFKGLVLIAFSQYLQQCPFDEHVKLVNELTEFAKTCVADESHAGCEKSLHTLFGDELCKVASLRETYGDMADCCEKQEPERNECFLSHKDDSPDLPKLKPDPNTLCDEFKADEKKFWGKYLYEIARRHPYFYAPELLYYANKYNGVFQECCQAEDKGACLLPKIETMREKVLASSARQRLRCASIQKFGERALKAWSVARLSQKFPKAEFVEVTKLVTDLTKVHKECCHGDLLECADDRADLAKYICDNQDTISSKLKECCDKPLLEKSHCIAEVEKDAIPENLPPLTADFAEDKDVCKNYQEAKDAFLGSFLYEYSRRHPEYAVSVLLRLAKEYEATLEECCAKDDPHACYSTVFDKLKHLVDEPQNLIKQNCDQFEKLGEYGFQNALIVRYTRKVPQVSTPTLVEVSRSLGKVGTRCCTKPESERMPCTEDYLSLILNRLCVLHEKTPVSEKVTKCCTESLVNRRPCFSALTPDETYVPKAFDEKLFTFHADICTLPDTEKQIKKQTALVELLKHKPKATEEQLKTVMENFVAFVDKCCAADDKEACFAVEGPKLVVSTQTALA

Bcl-2-like protein 1 = Bcl-2-like protein 1 (Homo sapiens, UniProt Q07817); assay: blockers of BCLXL peptide binding – biochemical, fluorescence polarization, 1536-well, selectivity assay for MCL1 inhibitor project, dose response (AID 2218)
Bcl-2-like protein 1, sequence (Q07817 whole entry): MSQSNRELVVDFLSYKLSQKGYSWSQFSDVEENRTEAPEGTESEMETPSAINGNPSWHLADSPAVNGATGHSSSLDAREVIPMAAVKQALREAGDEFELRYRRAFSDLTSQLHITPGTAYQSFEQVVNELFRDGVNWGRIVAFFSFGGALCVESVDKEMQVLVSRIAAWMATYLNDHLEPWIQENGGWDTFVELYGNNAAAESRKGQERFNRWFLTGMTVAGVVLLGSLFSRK

[5] = target: Induced myeloid leukemia cell differentiation protein Mcl-1 (Homo sapiens, UniProt Q07820); assay: blockers of MCL1 binding to BIM peptide – biochemical, fluorescence polarization, BIM-BH3 peptide, 1536-well, dose response (AID 2217)
Induced myeloid leukemia cell differentiation protein Mcl-1, sequence (Q07820 whole entry): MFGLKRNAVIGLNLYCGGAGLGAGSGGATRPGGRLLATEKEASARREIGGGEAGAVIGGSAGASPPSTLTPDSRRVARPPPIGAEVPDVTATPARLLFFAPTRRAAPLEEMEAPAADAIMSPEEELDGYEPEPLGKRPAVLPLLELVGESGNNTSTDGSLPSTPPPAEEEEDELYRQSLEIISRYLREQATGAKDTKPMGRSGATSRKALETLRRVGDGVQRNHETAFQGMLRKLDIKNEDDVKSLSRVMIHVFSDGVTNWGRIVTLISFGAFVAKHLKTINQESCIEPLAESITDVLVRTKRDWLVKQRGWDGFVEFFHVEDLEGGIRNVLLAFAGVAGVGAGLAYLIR

Phosphomannomutase 2 = Phosphomannomutase 2 (Homo sapiens, UniProt O15305); assay: Counter screen SAR assay for PMM2 inhibitors via a fluorescence intensity assay. [Related pubchem assays (depositor defined):AID1545, AID1574]
[6] = target: T2, Mannose-6-phosphate isomerase (Homo sapiens, UniProt P34949); assay: phosphomannose isomerase inhibition – biochemical, fluorescence intensity, confirmation (AID 1535)
T2 sequence (P34949 whole entry): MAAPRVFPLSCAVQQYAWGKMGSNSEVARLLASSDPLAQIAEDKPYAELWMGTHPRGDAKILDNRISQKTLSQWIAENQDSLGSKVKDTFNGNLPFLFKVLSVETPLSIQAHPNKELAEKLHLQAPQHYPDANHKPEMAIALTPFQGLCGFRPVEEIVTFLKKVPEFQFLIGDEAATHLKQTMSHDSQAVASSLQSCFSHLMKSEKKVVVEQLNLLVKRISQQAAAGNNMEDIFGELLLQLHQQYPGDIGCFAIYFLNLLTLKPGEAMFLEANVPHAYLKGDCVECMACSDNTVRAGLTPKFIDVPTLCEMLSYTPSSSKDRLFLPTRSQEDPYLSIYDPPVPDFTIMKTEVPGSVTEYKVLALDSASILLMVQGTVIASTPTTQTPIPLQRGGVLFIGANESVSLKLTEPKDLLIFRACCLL

Cytochrome P450 2C9 = Cytochrome P450 2C9 (Homo sapiens, UniProt P11712)
Cytochrome P450 2C19 = Cytochrome P450 2C19 (Homo sapiens, UniProt P33261); assay: Cytochrome panel assay with activity outcomes. Panel member name: p450-cyp2c19 Compounds with AC50 equal or less than 10 uM are considered active; type: functional; details: read-out: AC50
Cytochrome P450 2C19, sequence (P33261 whole entry): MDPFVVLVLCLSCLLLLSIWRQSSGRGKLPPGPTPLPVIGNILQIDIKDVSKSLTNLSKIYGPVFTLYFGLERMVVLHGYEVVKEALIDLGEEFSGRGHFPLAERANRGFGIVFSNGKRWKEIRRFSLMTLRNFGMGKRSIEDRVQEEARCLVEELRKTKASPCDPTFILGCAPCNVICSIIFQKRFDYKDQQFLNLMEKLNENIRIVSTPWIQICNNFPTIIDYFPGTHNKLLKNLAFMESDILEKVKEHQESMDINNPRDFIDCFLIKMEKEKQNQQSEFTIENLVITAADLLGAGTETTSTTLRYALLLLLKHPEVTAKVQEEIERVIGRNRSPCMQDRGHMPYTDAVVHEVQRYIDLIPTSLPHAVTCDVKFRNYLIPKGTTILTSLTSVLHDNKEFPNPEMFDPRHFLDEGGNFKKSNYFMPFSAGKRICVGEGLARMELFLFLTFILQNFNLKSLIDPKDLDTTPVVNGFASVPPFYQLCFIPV

Cytochrome P450 3A4 = Cytochrome P450 3A4 (Homo sapiens, UniProt P08684);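 note: CYP3A4 tested as one member of a cytochrome P450 panel screen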
Cytochrome P450 3A4, sequence (P08684 whole entry): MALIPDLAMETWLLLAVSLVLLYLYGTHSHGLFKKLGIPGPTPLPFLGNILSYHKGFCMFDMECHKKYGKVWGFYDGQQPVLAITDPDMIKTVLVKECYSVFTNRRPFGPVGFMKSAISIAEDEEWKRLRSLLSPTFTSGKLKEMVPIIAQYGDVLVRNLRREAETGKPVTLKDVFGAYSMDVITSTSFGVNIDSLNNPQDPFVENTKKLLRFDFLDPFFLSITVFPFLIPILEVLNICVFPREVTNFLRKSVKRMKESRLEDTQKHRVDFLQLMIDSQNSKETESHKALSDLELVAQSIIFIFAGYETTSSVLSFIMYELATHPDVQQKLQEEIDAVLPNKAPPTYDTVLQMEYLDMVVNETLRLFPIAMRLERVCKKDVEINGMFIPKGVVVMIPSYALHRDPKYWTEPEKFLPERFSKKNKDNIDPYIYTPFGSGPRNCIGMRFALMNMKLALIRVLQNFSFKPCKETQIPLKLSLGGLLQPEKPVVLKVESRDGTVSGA

[7] = target: T3, Kappa-type opioid receptor (Homo sapiens, UniProt P41145); assay: kappa opioid receptor activation by imaging – image-based, set 3, SAR follow-up (AID 488833); type: functional
T3 sequence (P41145 whole entry): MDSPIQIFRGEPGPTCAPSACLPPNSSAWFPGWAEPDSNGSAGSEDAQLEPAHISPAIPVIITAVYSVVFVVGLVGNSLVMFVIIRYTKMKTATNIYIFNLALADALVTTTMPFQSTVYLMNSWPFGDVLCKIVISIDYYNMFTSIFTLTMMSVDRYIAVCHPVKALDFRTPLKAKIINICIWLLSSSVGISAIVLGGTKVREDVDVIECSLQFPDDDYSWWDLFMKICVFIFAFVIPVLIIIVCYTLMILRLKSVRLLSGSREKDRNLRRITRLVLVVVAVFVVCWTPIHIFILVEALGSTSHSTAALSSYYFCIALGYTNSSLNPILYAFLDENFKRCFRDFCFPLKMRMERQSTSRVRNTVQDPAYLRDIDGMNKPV

[8] = target: Delta-type opioid receptor (Homo sapiens, UniProt P41143); assay: SAR Analysis of Agonists of the DOR Receptor using an Image-Based Assay - Set 3. [Related pubchem assays (depositor defined):AID1777, AID1786]; type: functional
Delta-type opioid receptor, sequence (P41143 whole entry): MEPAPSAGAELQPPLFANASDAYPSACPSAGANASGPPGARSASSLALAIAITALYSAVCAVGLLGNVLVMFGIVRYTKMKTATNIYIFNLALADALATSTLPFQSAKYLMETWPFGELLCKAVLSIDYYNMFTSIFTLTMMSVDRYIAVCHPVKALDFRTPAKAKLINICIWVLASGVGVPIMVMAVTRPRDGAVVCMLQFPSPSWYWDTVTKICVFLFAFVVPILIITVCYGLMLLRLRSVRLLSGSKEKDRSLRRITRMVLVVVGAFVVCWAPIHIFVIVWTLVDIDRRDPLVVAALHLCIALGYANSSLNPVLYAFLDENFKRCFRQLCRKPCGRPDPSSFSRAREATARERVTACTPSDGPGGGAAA

[9] = target: T3, Kappa-type opioid receptor; assay: SAR analysis of small molecule agonists of the kappa opioid receptor via a luminescent beta-arrestin assay - Set 3. [Related pubchem assays (depositor defined):AID1777, AID1785, AID1786, AID1966, AID2133, AID2136, AID2284, AID2500]; type: functional
Mu-type opioid receptor = Mu-type opioid receptor (Homo sapiens, UniProt P35372); assay: SAR Analysis of Agonists of the MOR Receptor using an Image-Based Assay - Set 3. [Related pubchem assays (depositor defined):AID1777, AID1785, AID1786, AID1966, AID2133, AID2136, AID2284, AID2285, AID2352]; type: functional
Cannabinoid receptor 2 [10] = target: T4, Cannabinoid receptor 2 (Homo sapiens, UniProt P34972); assay: SAR analysis of antagonists of the Cannabinoid Receptor 2 using an Image-Based Assay - Set 3. [Related pubchem assays (depositor defined):AID2013, AID2026]; type: functional
T4 sequence (P34972 whole entry): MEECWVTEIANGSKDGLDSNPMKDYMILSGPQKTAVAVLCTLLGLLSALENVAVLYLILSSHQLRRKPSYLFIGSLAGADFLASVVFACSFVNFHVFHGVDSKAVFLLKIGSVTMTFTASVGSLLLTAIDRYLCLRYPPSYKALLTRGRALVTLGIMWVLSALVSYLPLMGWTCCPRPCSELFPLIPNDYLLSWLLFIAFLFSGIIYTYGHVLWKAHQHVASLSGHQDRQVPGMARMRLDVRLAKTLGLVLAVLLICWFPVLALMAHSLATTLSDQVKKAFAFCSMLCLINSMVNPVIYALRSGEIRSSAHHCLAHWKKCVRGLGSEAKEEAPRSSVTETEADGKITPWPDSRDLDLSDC

[11] = target: T5, High affinity choline transporter 1 (Homo sapiens, UniProt Q9GZV3); assay: human choline transporter blockers, potency – cell-based, 5-point CRC, membrane potential dye, dose response (AID 504840); type: functional
T5 sequence (Q9GZV3 whole entry): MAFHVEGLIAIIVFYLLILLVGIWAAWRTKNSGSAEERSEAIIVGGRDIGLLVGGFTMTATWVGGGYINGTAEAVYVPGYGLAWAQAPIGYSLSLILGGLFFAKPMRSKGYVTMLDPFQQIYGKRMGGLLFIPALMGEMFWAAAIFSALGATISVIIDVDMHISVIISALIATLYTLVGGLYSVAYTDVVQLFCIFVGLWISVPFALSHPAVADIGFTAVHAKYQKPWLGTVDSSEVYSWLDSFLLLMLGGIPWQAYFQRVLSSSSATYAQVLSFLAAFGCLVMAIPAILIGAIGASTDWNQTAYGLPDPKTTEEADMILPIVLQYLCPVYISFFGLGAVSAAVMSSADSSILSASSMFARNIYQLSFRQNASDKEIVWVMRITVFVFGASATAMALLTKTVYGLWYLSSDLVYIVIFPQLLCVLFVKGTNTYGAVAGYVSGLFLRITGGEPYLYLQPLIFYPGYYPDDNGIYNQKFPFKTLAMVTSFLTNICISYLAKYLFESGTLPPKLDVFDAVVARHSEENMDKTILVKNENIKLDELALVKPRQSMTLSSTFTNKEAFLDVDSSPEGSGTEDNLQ

[12] = target: G-protein coupled receptor 55 (Homo sapiens, UniProt Q9Y2T6); assay: SAR Analysis of Selective Antagonists of GPR55 using an Image-Based Assay - Set 4. [Related pubchem assays (depositor defined):AID2013, AID2026]; type: functional;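 note: antagonism of response to 5 µM lysophosphatidylinositol agonist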
G-protein coupled receptor 55, sequence (Q9Y2T6 whole entry): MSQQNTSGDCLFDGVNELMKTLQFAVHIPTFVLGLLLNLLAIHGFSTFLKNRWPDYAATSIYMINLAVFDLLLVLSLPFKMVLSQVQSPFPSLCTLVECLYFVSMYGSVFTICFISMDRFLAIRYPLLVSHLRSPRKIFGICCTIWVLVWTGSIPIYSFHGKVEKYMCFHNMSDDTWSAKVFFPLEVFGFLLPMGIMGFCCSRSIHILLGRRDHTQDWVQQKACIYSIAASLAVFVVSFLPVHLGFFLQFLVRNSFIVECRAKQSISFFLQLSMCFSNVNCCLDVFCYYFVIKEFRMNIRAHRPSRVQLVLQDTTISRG

Cannabinoid receptor 2 [13] = target: T4, Cannabinoid receptor 2; assay: SAR analysis of agonists of the Cannabinoid Receptor 2 using an Image-Based Assay - Set 3. [Related pubchem assays (depositor defined):AID2013, AID2026]; type: functional
[14] = target: COUP transcription factor 2 (Homo sapiens, UniProt P24468); assay: Luminescence-based cell-based high throughput dose response assay to identify inhibitors of COUP-TFII (NR2F2).; type: functional;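 note: HEK293 cells transiently cotransfected with COUP-TFII expression vector and reporter; luciferase reporter luminescence driven by COUP-TFII from the pX2-168 reporter plasmid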
Cannabinoid receptor 1 [15] = target: T6, Cannabinoid receptor 1 (Homo sapiens, UniProt P21554); assay: SAR analysis of agonists of the Cannabinoid Receptor 1 using an Image-Based Assay - Set 4. [Related pubchem assays (depositor defined):AID2013, AID2026]; type: functional
T6 sequence (P21554 whole entry): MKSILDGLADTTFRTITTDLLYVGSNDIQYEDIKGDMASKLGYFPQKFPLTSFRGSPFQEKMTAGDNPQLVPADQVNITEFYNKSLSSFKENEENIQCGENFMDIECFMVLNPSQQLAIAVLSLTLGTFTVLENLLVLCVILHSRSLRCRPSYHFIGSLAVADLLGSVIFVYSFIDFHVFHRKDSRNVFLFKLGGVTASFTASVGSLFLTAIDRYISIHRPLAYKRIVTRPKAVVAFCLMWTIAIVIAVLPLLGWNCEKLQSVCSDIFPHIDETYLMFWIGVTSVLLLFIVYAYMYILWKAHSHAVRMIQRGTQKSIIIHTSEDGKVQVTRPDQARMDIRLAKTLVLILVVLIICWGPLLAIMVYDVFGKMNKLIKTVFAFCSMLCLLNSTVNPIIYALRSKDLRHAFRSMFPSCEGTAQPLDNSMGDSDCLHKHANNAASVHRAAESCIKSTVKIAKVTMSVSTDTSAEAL

Cannabinoid receptor 1 [16] = target: T6, Cannabinoid receptor 1; assay: SAR analysis of antagonists of the Cannabinoid Receptor 1 using an Image-Based Assay - Set 4. [Related pubchem assays (depositor defined):AID2013, AID2026]; type: functional
[17] = target: T7, G-protein coupled receptor 35 (Homo sapiens, UniProt Q9HC97); assay: SAR analysis of Agonists of the GPR35 Receptor using an Image-Based Assay - Set 4. [Related pubchem assays (depositor defined):AID2013, AID2026]; type: functional
T7 sequence (Q9HC97 whole entry): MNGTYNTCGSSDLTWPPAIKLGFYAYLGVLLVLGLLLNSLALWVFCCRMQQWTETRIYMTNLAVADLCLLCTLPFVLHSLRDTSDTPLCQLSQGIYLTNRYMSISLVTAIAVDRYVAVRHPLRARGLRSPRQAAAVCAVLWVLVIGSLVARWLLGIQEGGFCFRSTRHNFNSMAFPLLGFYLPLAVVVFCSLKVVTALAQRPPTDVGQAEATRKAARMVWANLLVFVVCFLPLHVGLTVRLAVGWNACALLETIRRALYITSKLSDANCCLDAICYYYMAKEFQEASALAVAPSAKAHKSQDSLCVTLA

[18] = target: T7, G-protein coupled receptor 35; assay: SAR analysis of Antagonists of the GPR35 Receptor using an Image-Based Assay - Set 6. [Related pubchem assays (depositor defined):AID2013, AID2026]; type: functional
Cytochrome P450 1A2 = target: T8, Cytochrome P450 1A2 (Homo sapiens, UniProt P05177);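 note: PubChem cytochrome P450 panel assay, CYP1A2 panel member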
T8 sequence (P05177 whole entry): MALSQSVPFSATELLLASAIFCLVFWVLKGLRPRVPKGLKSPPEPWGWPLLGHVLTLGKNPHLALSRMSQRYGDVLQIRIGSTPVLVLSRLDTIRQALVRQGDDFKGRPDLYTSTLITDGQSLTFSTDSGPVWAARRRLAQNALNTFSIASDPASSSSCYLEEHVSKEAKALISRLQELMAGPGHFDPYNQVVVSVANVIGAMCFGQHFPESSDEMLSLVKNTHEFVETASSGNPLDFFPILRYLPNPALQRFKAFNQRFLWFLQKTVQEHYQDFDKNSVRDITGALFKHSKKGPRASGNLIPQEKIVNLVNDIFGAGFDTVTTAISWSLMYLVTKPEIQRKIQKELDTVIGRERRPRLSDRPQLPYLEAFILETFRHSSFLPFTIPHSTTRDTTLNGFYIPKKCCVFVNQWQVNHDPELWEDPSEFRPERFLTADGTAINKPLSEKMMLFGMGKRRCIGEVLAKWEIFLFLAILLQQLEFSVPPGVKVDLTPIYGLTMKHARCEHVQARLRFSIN

With O=C(CN1CCOCC1)N/N=C/c1ccc([N+](=O)[O-])o1 the EC50 [1] was 0.127 µM (active).

For O=c1cc(-c2ccc(O)cc2)oc2c(O)c(O)c(O)c(O)c12, the EC50 [2] was 71.9 µM (active), the EC50 [3] was 43.4 µM (active) and the IC50 (Genome polyprotein) was > 100 µM (active). For the same compound, the EC50 [4] was 81 µM (active), the IC50 (Albumin) was > 94.2 µM (inactive) and the IC50 (Bcl-2-like protein 1) was > 109 µM (not active). For the same compound, the IC50 [5] was 18.8 µM (not active).

With COCC/N=c1\ssnc1Cl the IC50 (Phosphomannomutase 2) was > 100 µM (inactive) and the IC50 [6] was 11.9 µM (active).

For Cc1ccc(C)c(N2CCN(C(=O)C3CCN(S(=O)(=O)c4cccc5nsnc45)CC3)CC2)c1, the AC50 (Cytochrome P450 2C9) was 7.08 µM (inconclusive), the AC50 (Cytochrome P450 2C19) was 4.47 µM (inconclusive) and the AC50 (Cytochrome P450 3A4) was “inconclusive”.

For Fc1ccc(CSc2nnc(-c3ccccn3)n2Cc2ccco2)c(F)c1F, the EC50 [7] was 5.29 µM (active), the EC50 [8] was > 64 µM (inactive) and the EC50 [9] was 7.01 µM (active). For the same compound, the EC50 (Mu-type opioid receptor) was > 32 µM (inactive).

For Oc1ccc(-c2n[nH]c(C(F)(F)F)c2-c2ccccc2)c(O)c1, the IC50 (Cannabinoid receptor 2 [10]) was > 32 µM (inactive), the IC50 [11] was 11 µM (active) and the IC50 [12] was 2.95 µM (active). For the same compound, the EC50 (Cannabinoid receptor 2 [13]) was 27.4 µM (inactive), the IC50 [14] was 10.9 µM (inactive) and the EC50 (Cannabinoid receptor 1 [15]) was > 32 µM (inactive). The IC50 (Cannabinoid receptor 1 [16]) was 3.49 µM (active), the EC50 [17] was > 32 µM (inactive) and the IC50 [18] was > 32 µM (inactive).

For CC(C)[C@@H]1C(=O)N(S(C)(=O)=O)[C@H]2CCN(C(=O)/C=C\CN3CCCCC3)[C@@H]12, the AC50 (Cytochrome P450 2C19) was 20 µM (inconclusive) and the AC50 (Cytochrome P450 1A2) was “inconclusive”.

Reference: ChEMBL document CHEMBL1201862, “PubChem BioAssay data set” (2004)
